Results reported in US20250041278A1, “TLR8 AGONIST FOR MODULATING IMMUNE RESPONSE” (The Children's Medical Center Corporation, priority 2021, published 2025).

What was measured:
Type in all cases: cell-based
hTLR7 = target: T1, hTLR7 (Homo sapiens, UniProt Q9NYK1); assay: HEK hTLR7 NF-κB SEAP reporter assay; conditions: even at higher concentrations
T1 construct: expressed in transfected cells; host or cells: HEK reporter cells
T1 sequence (Q9NYK1 27-1049): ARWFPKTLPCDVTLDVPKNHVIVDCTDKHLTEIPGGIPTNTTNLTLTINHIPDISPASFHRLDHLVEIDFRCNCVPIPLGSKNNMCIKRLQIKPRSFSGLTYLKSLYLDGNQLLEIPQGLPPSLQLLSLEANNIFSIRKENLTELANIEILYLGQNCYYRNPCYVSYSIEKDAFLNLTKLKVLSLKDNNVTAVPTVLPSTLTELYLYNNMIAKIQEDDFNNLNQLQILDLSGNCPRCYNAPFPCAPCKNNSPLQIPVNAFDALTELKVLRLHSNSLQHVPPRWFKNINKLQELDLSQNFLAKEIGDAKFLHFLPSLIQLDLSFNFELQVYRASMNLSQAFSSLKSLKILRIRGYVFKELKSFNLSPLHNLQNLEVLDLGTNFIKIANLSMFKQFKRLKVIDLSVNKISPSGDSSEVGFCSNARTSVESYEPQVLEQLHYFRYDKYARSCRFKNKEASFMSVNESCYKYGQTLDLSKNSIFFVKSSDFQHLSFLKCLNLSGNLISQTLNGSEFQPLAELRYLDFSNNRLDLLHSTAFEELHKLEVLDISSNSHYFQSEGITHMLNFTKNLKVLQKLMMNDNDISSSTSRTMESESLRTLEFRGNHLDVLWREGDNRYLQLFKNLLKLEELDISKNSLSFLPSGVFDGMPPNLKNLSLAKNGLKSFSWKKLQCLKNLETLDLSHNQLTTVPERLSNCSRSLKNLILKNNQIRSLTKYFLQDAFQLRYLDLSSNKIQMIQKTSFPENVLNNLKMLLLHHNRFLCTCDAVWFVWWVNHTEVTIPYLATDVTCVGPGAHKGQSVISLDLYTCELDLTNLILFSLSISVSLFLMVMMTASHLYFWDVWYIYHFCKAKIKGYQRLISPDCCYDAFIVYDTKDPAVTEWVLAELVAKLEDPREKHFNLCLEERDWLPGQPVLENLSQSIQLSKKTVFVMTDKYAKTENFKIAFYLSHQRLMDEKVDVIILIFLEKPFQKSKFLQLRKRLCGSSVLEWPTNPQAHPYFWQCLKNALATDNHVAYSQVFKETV
Description: FIGS. 3A-3E. PVP-179 is a TLR8 agonist. FIG. 3A: PVP-179 was sent to InvivoGen for PRR ligand screening service. Various cells lines were utilized to screen for PVP-179-induced ([…]) activation of TLRs, NOD1/2, RIG-I/MDA-5, Dectin-1 or Mincle receptor. The heat-map depicts percentage activity compared to the positive control for each receptor. FIG. 3B: PVP-179 induced activity (% activity compared to the positive control: CL075 at 1 μg/mL) in HEK-293 cells specifically expressing hTLR8. In brief, these cells have an NF-κB/AP-1-inducible secreted embryonic alkaline phosphatase (SEAP) reporter gene which allows monitoring of signaling via TLR8. After incubation for 16-24 hours, supernatant harvested from the cells is mixed with media containing SEAP-substrate and the optical density (OD) is measured at 650 nm using a spectrophotometer. FIG. 3C: As in FIG. 3B, HEK cells specifically expressing hTLR2, hTLR7, or hTLR8, in addition to the HEK-Null cell line carrying only the reporter gene, were stimulated with the indicated concentrations of PVP-179. […] PVP-179 activity is expressed as a percentage of NF-κB induced in the cells stimulated with TNF (positive control for each cell line). […] The supernatants were harvested after 20-24 hours and SEAP production (to assess NF-κB activity) was measured using QUANTIBlue assay. […]

[1] = system: human monocyte derived dendritic cells; assay: TNF ELISA in human monocyte derived dendritic cells (MoDCs); conditions: 20-24 hours
Description: FIGS. 4A-4D. PVP-179 activates human macrophages and dendritic cells. FIGS. 4A-4B: Murine mononuclear cells were isolated from bone marrow and induced differentiation into dendritic cells (with GM-CSF and IL-4). After 5 days of culturing, these bone-marrow-derived dendritic cells (BMDCs) were stimulated with PVP-179 or MPLA for 18 hours at indicated concentrations. The supernatants were analyzed via ELISA where each dot in the graph represents the mean production of mTNF (FIG. 4A) and mIL-6 (FIG. 4B). N=6 for PVP-179, N=3 for MPLA. Two-way Anova was performed to determine statistical significance. The comparisons shown are compared to control group (0 M PVP-179). FIGS. 4C-4D: PBMCs were isolated from blood of adult human donors. CD14+ monocytes were specifically isolated from the PBMCs and were then cultured in 10% autologous plasma and induced to differentiate into macrophages with M-CSF (FIG. 4C), or dendritic cells with GM-CSF and IL-4 (FIG. 4D). After 5 days, cells were harvested from each differentiated cell type (macrophages: Mφ; dendritic cells: MoDCs) and a 96-well plate was setup with 100,000 cells/well. Cells were then stimulated with indicated concentrations of PVP-179 or R848 (33 μM) or LPS (100 ng/mL). After 20-24 hours of incubation, supernatants were harvested and applied to TNF ELISA. N=2 donors.

[2] = system: human adult and elderly PBMCs; assay: TNF ELISA in human adult or elderly PBMCs, 96-well format; conditions: stimulated for 24 hours
From the text: FIGS. 1A-1D. Discovery of PVP-179 in a human PBMC high-throughput screen. FIG. 1A: A graphical overview depicting screen approach. From a high-throughput screen previously conducted, 310 molecules were identified to be activators of either THP-1 cells (monocyte cell line) or primary human adult peripheral blood mononuclear cells (PBMCs). These 310 molecules were assembled into a stimulation plate and then applied to the PBMCs of 4 elderly donors (cultured with 10% autologous plasma). […] Z scores were averaged across all four elderly donors. The Z score and chemical structure for PVP-179 are indicated. FIG. 1C: Human adult or elderly PBMCs (cultured with 10% autologous plasma) were stimulated with PVP-179 in a two-point concentration titration manner. […] N=4 donors. FIG. 1D: As in FIG. 1C, the supernatants were collected, and 14 cytokines were measured by multiplex assay. […] N=4 donors each.
The activity of PVP-179 was confirmed in a 96-well format in both human adult and elderly PBMCs.

Structure (SMILES): CCCCn1c(/N=C/c2nc3ccccc3n2C)nc2ccccc21 [PVP-179]
- NF-κB activity in HEK cells expressing hTLR7 (hTLR7): no activity was detected
- TNF-inducing activity [1]: concentration-dependent activity
- production of TNF ([2]; adult PBMCs): concentration-dependent production of TNF
- production of TNF ([2]; elderly PBMCs): concentration-dependent production of TNF
